Reference: PubChem BioAssay AID488890 (Southern Research Specialized Biocontainment Screening …, 2010)
Records with an inconclusive call do not appear. Active and inactive are the calls of the source. The rule behind the calls is not given here.

Test system: Mycobacterium tuberculosis non-replicating, growth inhibition
Assay: growth inhibition of non-replicating M. tuberculosis (AID 488890)

| Structure (SMILES) | IC50 |
| --- | --- |
| Cc1cc(C)cc(NC(=O)CCc2ccc(C)o2)c1 | 1.42 µM |
| COc1cc(CNCCc2c[nH]c3ccccc23)ccc1OCc1ccc(F)cc1 | 11.5 µM (inactive) |
| CCOc1cc(CNCCO)cc(Br)c1OCc1ccc(Cl)cc1 | 5.65 µM |
| COc1cccc(/C=C2\SC(=S)N(CCC(=O)N3CCCCC3)C2=O)c1 | 9.08 µM |
| COc1ccc(CC(=O)OCC(=O)Nc2ccc(Br)cc2)cc1 | 14.6 µM (inactive) |
| Cc1cc(Cl)ccc1OCC(=O)NNC(=O)c1cnccn1 | 6.05 µM |
| CCOC(=O)Cn1cc(C#N)c2ccccc21 | 6.17 µM |
| O=C(COc1ccc(F)cc1)N/N=C/c1cccc2cccnc12 | 3.84 µM |
| C/C(=N/NC(=O)c1ccco1)c1ccc(Br)s1 | 23 µM (inactive) |
| O=S(=O)(Nc1ccc(O)c2ccccc12)c1ccc(F)cc1 | 6.47 µM |
| CCOC(=O)c1c(C)nc2cc(C)ccn12 | 5.9 µM |
| O=C(OCc1nnc(-c2ccccc2)o1)c1cc([N+](=O)[O-])ccc1Cl | 6.28 µM |
| CC1CCN(C(=O)c2ccc(-c3ccccc3Cl)o2)CC1 | 5.32 µM |
| CCOC(=O)c1csc(COc2ccc(OC)cc2)n1 | 7.75 µM |
| COc1cc(N=c2ssnc2Cl)cc(OC)c1 | 19.3 µM (inactive) |
| O=C(Nc1nc2ccccc2[nH]1)c1cccc([N+](=O)[O-])c1 | 33.2 µM (inactive) |
| CCOC(=O)COc1c(-c2ccc(OC)cc2)oc2ccccc2c1=O | 4.43 µM |
| Cc1cc(C(=O)N/N=C/c2ccc([N+](=O)[O-])o2)c(C)o1 | 5.51 µM |
| C/C(=N\Nc1ccc(Cl)cc1)c1ccccn1 | 15.9 µM (inactive) |
| CSc1nnc(Cc2ccc3c(c2)OCO3)o1 | 7.56 µM |
| O=C(N/N=C/c1ccc([N+](=O)[O-])o1)c1ccc(NS(=O)(=O)c2cccs2)cc1 | 9.88 µM |
| CC1=CC(=O)NP(=O)(Oc2ccc3ccccc3c2)N1 (stereo unspecified) | 7.95 µM |
| O=C(N/N=C/c1ccc([N+](=O)[O-])o1)c1sc2ccccc2c1Cl | 2.9 µM |
| COC(=O)COc1ccc(-c2ccc(F)cc2)cc1C=O | 5.82 µM |

| Structure (SMILES) | IC50 |
| --- | --- |
| CCc1cc2c(=O)n(C(C)C(=O)OC3CCCCC3)cnc2s1 (stereo unspecified) | 16.6 µM (inactive) |
| Cc1cnc(NC(=O)c2ccccn2)s1 | 8.53 µM |
| C/C(=N\O)c1cc(Cl)ccc1O | 2.42 µM |
| O=C(Oc1ccccc1)c1ccc(COC(=O)c2cnccn2)cc1 | 10.7 µM (inactive) |
| N/C(=N\OC(=O)CC1CCCCC1)c1ccncc1 | 6.38 µM |
| c1ccc2sc(SCc3ccc(-c4nnco4)cc3)nc2c1 | 13.2 µM (inactive) |
| O=c1[nH]c(O)c(/C=C2/C=CC(c3cc(Cl)ccc3Cl)=N2)c(=O)[nH]1 | 0.34 µM |
| CCOC(=O)C1=C(c2ccccc2)NC(N)=NC1c1ccc(OCc2ccc(Cl)cc2)c(OC)c1 (stereo unspecified) | 4.25 µM |
| COc1ccc2c(c1)C(=C(C#N)C#N)C(=O)N2CCc1ccccc1 | 25 µM (inactive) |
| Cc1cc2nc(CSc3ccc(Cl)cc3)cc(=O)n2[nH]1 | 14.8 µM (inactive) |
| O=C(N/N=C/c1ccccn1)c1cc([N+](=O)[O-])cc([N+](=O)[O-])c1 | 9.98 µM |
| O=C(Nc1ccc(Cc2ccncc2)cc1)c1ccc([N+](=O)[O-])o1 | 1.74 µM |
| O=C(Nc1cccc(Cl)c1)Nc1nnc(-c2ccncc2)s1 | 2.69 µM |
| CCCCCCCC(=O)N/N=C(/C)c1c(O)cc(C)oc1=O | 4.26 µM |
| CCOC(=O)CNc1ccc(C(=O)OCC)cc1[N+](=O)[O-] | 11 µM (inactive) |
| O=C(Nc1nccs1)c1ccc(-c2ccc(Cl)cc2)o1 | 21.3 µM (inactive) |
| COC(=O)c1cccc(NC(=O)COc2cccc([N+](=O)[O-])c2)c1 | 7.11 µM |
| CCCCNC(=O)COC(=O)c1cc(F)c(F)cc1Cl | 5.61 µM |
| O=C(Nc1nnc(-c2ccc(Br)cc2)o1)C1=COCCO1 | 24.6 µM (inactive) |
| Oc1ccccc1-c1nnc(COc2ccccc2)o1 | 11.2 µM (inactive) |
| CCOC(=O)C(Nc1ccc2ccccc2c1)C(=O)OCC | 7.7 µM |
| COc1cc2ccccc2cc1C(=O)Nc1sc2c(c1C(N)=O)CCN(C(C)C)C2 | 19 µM (inactive) |
| O=S1(=O)C=C(Sc2nc3cc(Cl)ccc3o2)c2ccccc21 | 0.3 µM |
| O=C(COc1ccccc1)NNc1nc2ccccc2s1 | 34.2 µM (inactive) |

| Structure (SMILES) | IC50 |
| --- | --- |
| CCCCSc1nnc(-c2ccc(C)cc2)o1 | 0.37 µM |
| COc1ccc(OC)c(N2C(=O)NC(=O)/C(=C/c3ccc([N+](=O)[O-])s3)C2=O)c1 | 25.5 µM (inactive) |
| CN(CC(=O)Nc1ccc(Cl)cc1)C1CCCCC1 | < 0.1 µM |
| CC(NC(=O)COc1ccc(-c2ccccc2)cc1)C1CCCO1 (stereo unspecified) | 8.2 µM |
| CCOc1ccc(-c2nnc(NC(=O)CCCOc3cccc(C)c3)o2)cc1 | 15 µM (inactive) |
| COC(=O)[C@H](CC(C)C)NC(=O)NCCC1=CCCCC1 | 12.8 µM (inactive) |
| Cc1ccccc1C(=O)NN1CC(C(=O)OCc2ccc(Cl)c(Cl)c2)CC1=O (stereo unspecified) | 14.1 µM (inactive) |
| O=C1/C(=C/c2ccco2)CCC1C1CCCC1 (stereo unspecified) | 13.8 µM (inactive) |
| CC(=O)Nc1nc2ccccc2n1Cc1ccccc1Cl | 14.1 µM (inactive) |
| Cc1ccc(C(=O)C=CNNC(=O)c2ccccc2)cc1 | 2.15 µM |
| Cc1cccc2nc(CSc3nc4cc([N+](=O)[O-])ccc4s3)cn12 | 18.1 µM (inactive) |
| O=C(Nc1ccccc1F)c1ccc(Br)o1 | 13.4 µM (inactive) |
| COc1cc(C(=O)N/N=C/c2cc([N+](=O)[O-])cs2)cc(OC)c1OC | 3.58 µM |
| CCOc1ccc(C(=O)CCN2CCCCCC2)cc1 | 2.44 µM |
| CN(C)CCC(=O)N1c2ccccc2Sc2ccc(Cl)cc21 | 21 µM (inactive) |
| O=C(Nc1ccn(Cc2ccccc2)n1)c1ccc(F)cc1 | 14.8 µM (inactive) |
| O=S(=O)(CCN1CCN(c2ccccn2)CC1)c1ccc(Cl)cc1Cl | 8.61 µM |
| O=C(NNc1nc2cc3c(cc2s1)OCCO3)c1ccccc1 | 23.5 µM (inactive) |
| O=C(COc1ccc(Nc2ccccc2)cc1)OCC(=O)N1CCCCC1 | 6.24 µM |
| O=Cc1ccnc(-c2ccc(OC(=O)c3ccco3)cc2)n1 | 18.2 µM (inactive) |
| O=C(N=Nc1c(O)[nH]c2ccc(Br)cc12)c1ccccc1-n1cccc1 | 5.94 µM |
| Cc1ccc(C)c(-c2nnc(NC(=O)C3=COCCO3)o2)c1 | 23.1 µM (inactive) |
| CCN(CC)CCCN(C(=O)c1ccco1)c1nc(-c2ccc(C)cc2)cs1 | 21.9 µM (inactive) |
| Cn1cccc1/C=N/NC(=O)c1ccncc1 | 1.96 µM |

| Structure (SMILES) | IC50 |
| --- | --- |
| O=C(N/N=C/c1ccc(OC(=O)c2cccs2)cc1)c1ccccn1 | 2.94 µM |
| O=c1cc2[nH]c3ccccc3c(=O)n2nc1-c1ccccc1 | 7.1 µM |
| CC(C)n1c(=S)[nH]c2ccccc2c1=O | 14.2 µM (inactive) |
| CCOC(=O)Cn1c(C)c(Br)c(=O)c2cccc(C)c21 | 3.76 µM |
| O=C(N/N=C/c1ccc(OC(=O)c2ccco2)cc1)c1ccccn1 | 6.05 µM |
| O=C(N/N=C\C=C\c1ccco1)c1cncc(Br)c1 | 34.4 µM (inactive) |
| O=C1CCCC(O)=C1C=Nc1ccc2c(c1)oc1ccccc12 | 8.18 µM |
| Cc1ccc(NC(=O)CC2SC3=NCCCN3C2=O)c(C)c1 (stereo unspecified) | 18.8 µM (inactive) |
| O=C(Nc1nc2ccccc2n1CCN1CCCC1)c1ccc(Cl)cc1 | 12.5 µM (inactive) |
| CC(/C=C/c1ccccc1F)=N\NC(=O)c1ccccc1 | 3.87 µM |
| Cc1cc(Cl)cc(C)c1OCCCCn1ccnc1 | 16.9 µM (inactive) |
| CCOC(=O)c1ccc(N=C2SC(C(=O)Nc3ccc(C(=O)O)cc3)CC(=O)N2Cc2cccs2)cc1 (stereo unspecified) | 35.1 µM (inactive) |
| Cc1cc(CC(C)C)n(-c2nc3ccccc3c(=O)n2OCC(N)=O)n1 | 16.1 µM (inactive) |
| Cc1nc2ccc(NC(=O)COc3cccc(F)c3)cc2s1 | 7.87 µM |
| O=C(COc1ccc(Cl)cc1)Nc1ccc2[nH]ncc2c1 | 26.5 µM (inactive) |
| O=C(Nc1nnc(-c2ccncc2)o1)c1ccc(Br)s1 | 7.66 µM |
| COc1ccccc1-c1nnc(Sc2nc([N+](=O)[O-])nn2C)o1 | 8.19 µM |
| CSCCC(=O)N1CCCC(CNC(=O)c2ccc(-c3ccccc3)cc2)C1 (stereo unspecified) | 17.9 µM (inactive) |
| O=C(COC(=O)c1ccccc1)NCc1cccs1 | 37.4 µM (inactive) |
| CC(C)(C)c1csc(NC(=O)c2ccccc2O)n1 | 19.6 µM (inactive) |
| O=C(Nc1nnc(-c2ccc3c(c2)CCCC3)o1)c1c(F)cccc1F | 3.12 µM |
| O=C(COc1ccc(Cl)cc1)NNC(=O)c1ccccn1 | 12.1 µM (inactive) |
| S=C1SCN(Cc2ccco2)CN1Cc1ccco1 | 14.1 µM (inactive) |
| O=C(OCC(=O)N1CCN(c2ccccc2)CC1)c1cnc(Cl)c(Cl)c1 | 4.72 µM |

| Structure (SMILES) | IC50 |
| --- | --- |
| CC(=O)c1ccc(OCC(=O)Nc2ccc3c(c2)CCC3)cc1 | 12.4 µM (inactive) |
| O=C(CNC(=O)c1ccc(Br)cc1)c1ccc(Br)cc1 | 18.3 µM (inactive) |
| Cc1cc(N/N=C/c2ccc(F)cc2)nc(-n2nc(C)cc2C)n1 | 4.92 µM |
| C/C(=N\NC(=O)c1ccncc1)c1cc2ccccc2oc1=O | 0.43 µM |
| COc1ccc(/C=N/Nc2cc(C)nc3ccccc23)cc1 | 8.43 µM |
| O=C(c1ccc([N+](=O)[O-])o1)N1CCN(Cc2ccccc2)CC1 | 2.81 µM |
| COc1ccc(/C=C2\COc3ccccc3C2=O)cc1OC | 12.5 µM (inactive) |
| CCOC(=O)C(C)Oc1cc(Cl)c(C=O)cc1OC (stereo unspecified) | 8.06 µM |
| Cc1c(Cl)cccc1NC(=O)C1COc2ccccc2O1 (stereo unspecified) | 12.1 µM (inactive) |
| O=c1c2cc(Cl)ccc2nc(-c2ccc([N+](=O)[O-])cc2)n1O | 2.2 µM |
| O=C(NNc1ccc([N+](=O)[O-])cc1)C1CC2CCCC(C1)C2=O (stereo unspecified) | 16.2 µM (inactive) |
| Cc1ccc(NC(=O)CO/N=C/c2ccccc2C)c(C)c1 | 13 µM (inactive) |
| COc1cc(C=O)ccc1OCCOCCOc1ccc(Cl)cc1 | 27.8 µM (inactive) |
| O=C(c1ccc([N+](=O)[O-])o1)N1CCN(c2nc3ccc(F)cc3s2)CC1 | < 0.1 µM |
| CN(C)C=C1C(=O)N(C2CCCCC2)C(=O)N(C2CCCCC2)C1=O | 1.57 µM |
| COCCNC(=O)c1cc2cc(Cl)cc(Cl)c2oc1=O | 3.67 µM |
| Cc1csc(NC(=O)c2cc([N+](=O)[O-])cc([N+](=O)[O-])c2)n1 | 7.76 µM |
| Clc1ccc(Cl)c(OCCCCNCc2ccccc2)c1 | 15.1 µM (inactive) |
| Cc1ccc(C(=O)COC(=O)c2cccs2)cc1 | 11 µM (inactive) |
| Cn1c(=O)[nH]c(=O)c2c1nc([N+](=O)[O-])n2Cc1ccccc1 | 4.58 µM |
